Experimental findings from patent US10758534B2 (Vertex Pharmaceuticals Incorporated, priority 2014, dated 2020) are described below.

The target in one experiment is T1, F508del (Homo sapiens, UniProt P13569, DEL508-508).
T1 construct: expressed in transfected cells
T1 sequence (P13569 with tags, fused parts or gaps DEL508-508): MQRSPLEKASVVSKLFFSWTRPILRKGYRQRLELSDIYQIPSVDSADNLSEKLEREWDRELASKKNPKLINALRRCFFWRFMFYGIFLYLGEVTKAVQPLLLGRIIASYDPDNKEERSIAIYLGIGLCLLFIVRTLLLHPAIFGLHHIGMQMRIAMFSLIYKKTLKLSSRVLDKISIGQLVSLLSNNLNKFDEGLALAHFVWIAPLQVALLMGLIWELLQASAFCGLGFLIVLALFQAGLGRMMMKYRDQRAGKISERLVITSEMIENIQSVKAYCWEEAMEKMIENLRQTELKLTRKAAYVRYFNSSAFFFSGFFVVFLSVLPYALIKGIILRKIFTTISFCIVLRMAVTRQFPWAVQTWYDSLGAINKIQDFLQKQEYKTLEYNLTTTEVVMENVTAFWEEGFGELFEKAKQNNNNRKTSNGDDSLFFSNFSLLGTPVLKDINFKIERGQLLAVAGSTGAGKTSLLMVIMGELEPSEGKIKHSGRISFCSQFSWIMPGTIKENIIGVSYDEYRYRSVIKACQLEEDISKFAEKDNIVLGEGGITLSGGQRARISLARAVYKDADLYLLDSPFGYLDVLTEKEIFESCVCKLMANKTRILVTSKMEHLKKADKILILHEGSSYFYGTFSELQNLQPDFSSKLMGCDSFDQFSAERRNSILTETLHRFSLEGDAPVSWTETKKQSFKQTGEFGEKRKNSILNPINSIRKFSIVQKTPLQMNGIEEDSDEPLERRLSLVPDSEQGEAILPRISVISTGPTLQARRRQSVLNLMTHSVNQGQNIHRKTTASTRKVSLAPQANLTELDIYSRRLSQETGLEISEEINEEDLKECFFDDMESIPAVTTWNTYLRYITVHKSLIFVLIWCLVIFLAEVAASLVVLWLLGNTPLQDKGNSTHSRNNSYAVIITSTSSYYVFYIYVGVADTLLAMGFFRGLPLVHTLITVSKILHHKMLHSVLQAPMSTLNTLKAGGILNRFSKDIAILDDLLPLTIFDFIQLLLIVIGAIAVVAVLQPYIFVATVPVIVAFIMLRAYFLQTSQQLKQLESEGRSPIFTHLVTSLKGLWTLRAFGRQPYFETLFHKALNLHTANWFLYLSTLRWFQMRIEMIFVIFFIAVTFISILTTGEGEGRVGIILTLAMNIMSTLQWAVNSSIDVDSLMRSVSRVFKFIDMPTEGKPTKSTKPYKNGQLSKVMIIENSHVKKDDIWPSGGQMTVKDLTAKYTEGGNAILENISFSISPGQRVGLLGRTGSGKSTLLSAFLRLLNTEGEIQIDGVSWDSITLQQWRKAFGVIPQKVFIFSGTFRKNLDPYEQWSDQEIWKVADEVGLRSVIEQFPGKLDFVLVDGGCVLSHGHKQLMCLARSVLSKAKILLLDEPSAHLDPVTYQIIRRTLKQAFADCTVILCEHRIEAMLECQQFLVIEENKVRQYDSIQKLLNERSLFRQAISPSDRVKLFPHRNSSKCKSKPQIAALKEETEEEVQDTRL
Put plainly: Protocol 2: FRET membrane potential optical assay (VIPR), identification of correction compounds. The note with it: F508del CFTR modulator activity; compounds of Table 1. Format: cell-based. The method, boiled down:
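Single-addition HTS format: F508del-expressing NIH3T3 cells pre-incubated 16 hrs at 37° C. ± compound, with 27° C. culture as positive control. Channel activation by forskolin 10 μM and genistein 20 μM upon switch to gluconate bath, pH 7.4; read-out is FRET-based depolarization signal.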
Turning to `CC[C@@H](C)Oc1ccn(-c2ccc(C(=O)NS(=O)(=O)c3cccnc3N)c(N3C[C@@H](C)CC3(C)C)n2)n1` [Compound 2705], the concentration for an effect of 30% (EC30) (commonly the concentration at which the effect reaches the 30% level) is on record as “+++ (“+++” means <3 uM)”.

The experiment is the same for the next values; noted with them: F508del CFTR modulator activity; compounds of Table 1; read-out: EC30.
For `CCOc1cc(-c2ccc(C(=O)NS(=O)(=O)c3cccc(N)n3)c(N3C[C@@H](C)CC3(C)C)n2)cc(C)n1` [Compound 2364, N-[(6-amino-2-pyridyl)sulfonyl]-6-(2-ethoxy-6-methyl-4-pyridyl)-2-[(4S)-2,2,4-trimethylpyrrolidin-1-yl]pyridine-3-carboxamide], the 30% effect concentration (EC30) was under 3000 nM. For `Cc1cccc(-c2ccc(C(=O)NS(=O)(=O)c3ccc[nH]c3=O)c(N3C[C@@H](C)CC3(C)C)n2)c1C` [Compound 2073, 6-(2,3-dimethylphenyl)-N-[(2-oxo-1H-pyridin-3-yl)sulfonyl]-2-[(4S)-2,2,4-trimethylpyrrolidin-1-yl]pyridine-3-carboxamide], the EC30 is under 3000 nM. As for `C[C@@H]1CN(c2nc(-c3cccc4[nH]ccc34)ccc2C(=O)NS(=O)(=O)c2cccnc2N)C(C)(C)C1` [Compound 2478, N-[(2-amino-3-pyridyl)sulfonyl]-6-(1H-indol-4-yl)-2-[(4S)-2,2,4-trimethylpyrrolidin-1-yl]pyridine-3-carboxamide], the concentration for an effect of 30% (EC30) is under 3000 nM.

Regarding `C[C@@H]1CN(c2nc(C3CCCOC3)ccc2C(=O)NS(=O)(=O)c2cccnc2N)C(C)(C)C1` (stereo partly drawn) [Compound 2311, N-[(2-amino-3-pyridyl)sulfonyl]-6-tetrahydropyran-3-yl-2-[(4S)-2,2,4-trimethylpyrrolidin-1-yl]pyridine-3-carboxamide], the EC30 is under 3000 nM. Take `CC1CN(c2ncccc2C(=O)NS(=O)(=O)c2cccc(N(C)CCc3cccnc3)n2)C(C)(C)C1` (centres unmarked) [Compound 2005, N—[[6-[methyl-[2-(3-pyridyl)ethyl]amino]-2-pyridyl]sulfonyl]-2-(2,2,4-trimethylpyrrolidin-1-yl)pyridine-3-carboxamide]: the EC30 was in the range of 3000 to 10000 nM.

Regarding `CC(C)n1cc(-c2ccc(C(=O)NS(=O)(=O)c3cccnc3N)c(N3C[C@@H](C)CC3(C)C)n2)cn1` [Compound 2290, N-[(2-amino-3-pyridyl)sulfonyl]-6-(1-isopropylpyrazol-4-yl)-2-[(4S)-2,2,4-trimethylpyrrolidin-1-yl]pyridine-3-carboxamide], the EC30 was in the range of 3000 to 10000 nM. Still for that read-out and setting: for `CCN(CC)c1cc(C)cc(-c2ccc(C(=O)NS(=O)(=O)c3cccc(N)n3)c(N3C[C@@H](C)CC3(C)C)n2)n1` [Compound 2002, N-[(6-amino-2-pyridyl)sulfonyl]-6-[6-(diethylamino)-4-methyl-2-pyridyl]-2-[(4S)-2,2,4-trimethylpyrrolidin-1-yl]pyridine-3-carboxamide] the value was under 3000 nM; for `CCOCCOCCOc1ccc(C(=O)NS(=O)(=O)c2cccnc2N)c(N2C[C@@H](C)CC2(C)C)n1` [Compound 2700], under 3000 nM. For `Cc1nn(C)c(C)c1-c1ccc(C(=O)NS(=O)(=O)c2cccnc2N)c(N2C[C@@H](C)CC2(C)C)n1` [Compound 2668, N-[(2-amino-3-pyridyl)sulfonyl]-6-(1,3,5-trimethylpyrazol-4-yl)-2-[(4S)-2,2,4-trimethylpyrrolidin-1-yl]pyridine-3-carboxamide], the EC30 lay within 3000 to 10000 nM. Still for that read-out and setting: as for `CC1CN(c2ncccc2C(=O)NS(=O)(=O)c2cccc(OCc3ccc(Cl)cc3F)n2)C(C)(C)C1` (centres unmarked) [Compound 2182, N—[[6-[(4-chloro-2-fluoro-phenyl)methoxy]-2-pyridyl]sulfonyl]-2-(2,2,4-trimethylpyrrolidin-1-yl)pyridine-3-carboxamide], the figure is under 3000 nM; as for `CC1CN(c2ncc(-c3ccc(C(C)(C)C#N)cc3)cc2C(=O)NS(=O)(=O)c2cccc(N)n2)C(C)(C)C1` (centres unmarked) [Compound 2521, N-[(6-amino-2-pyridyl)sulfonyl]-5-[4-(1-cyano-1-methyl-ethyl)phenyl]-2-(2,2,4-trimethylpyrrolidin-1-yl)pyridine-3-carboxamide], under 3000 nM. The same measure, in the same setting: as for `C[C@@H]1CN(c2nc(C3CCCCO3)ccc2C(=O)NS(=O)(=O)c2cccnc2N)C(C)(C)C1` (stereo partly drawn) [Compound 2351, N-[(2-amino-3-pyridyl)sulfonyl]-6-tetrahydropyran-2-yl-2-[(4S)-2,2,4-trimethylpyrrolidin-1-yl]pyridine-3-carboxamide], the figure is under 3000 nM; as for `CC1CN(c2ncccc2C(=O)NS(=O)(=O)c2cccc(N[C@H](C)C3CCCCC3)n2)C(C)(C)C1` (stereo partly drawn) [Compound 1996, N—[[6-[[(1R)-1-cyclohexylethyl]amino]-2-pyridyl]sulfonyl]-2-(2,2,4-trimethylpyrrolidin-1-yl)pyridine-3-carboxamide], under 3000 nM.

Still in this experiment, the particulars now being: Table 3; compounds of Table 1 as modulators of CFTR activity; protocol not stated.
Regarding `Cc1cc(C)c(Cn2c(C(=O)NS(=O)(=O)c3ccncc3)cc3ccc(C)cc32)c(C)c1` [Compound 38, 6-methyl-N-(4-pyridylsulfonyl)-1-[(2,4,6-trimethylphenyl)methyl]indole-2-carboxamide], the concentration for an effect of 30% (EC30) entry was “+++ (“+++” means <3 uM)”.

Consider `CCCn1cc(-c2ccc(C(=O)NS(=O)(=O)c3cccc(N)n3)c(Oc3c(C)cc(C)cc3C)n2)cn1` [Compound 469, N-[(6-amino-2-pyridyl)sulfonyl]-6-(1-propylpyrazol-4-yl)-2-(2,4,6-trimethylphenoxy)pyridine-3-carboxamide], for which the EC30 result was “++ (“++” means between 3 uM and 10 uM)”. In the case of `Cc1cc(C)c(CN2Cc3ccccc3C2C(=O)NS(=O)(=O)c2cccc(N)n2)c(C)c1` (centres unmarked) [Compound 73, N-[(6-amino-2-pyridyl)sulfonyl]-2-[(2,4,6-trimethylphenyl)methyl]isoindoline-1-carboxamide], the EC30 entry is on record as “+++ (“+++” means <3 uM)”.

Regarding `CCCOc1cc(-c2ccc(C(=O)NS(=O)(=O)c3ccc[nH]c3=O)c(Oc3c(C)cc(C)cc3C)n2)ccc1Cl` [Compound 72, 6-(4-chloro-3-propoxy-phenyl)-N-[(2-oxo-1H-pyridin-3-yl)sulfonyl]-2-(2,4,6-trimethylphenoxy)pyridine-3-carboxamide], the concentration for an effect of 30% (EC30) entry is “++ (“++” means between 3 uM and 10 uM)”.

With `CC(C)Oc1ccc(-c2ccc(C(=O)NS(=O)(=O)c3cccc(N)n3)c(N3[C@H](C)CC[C@@H]3C)n2)cn1` [Compound 337, N-[(6-amino-2-pyridyl)sulfonyl]-2-[(2S,5R)-2,5-dimethylpyrrolidin-1-yl]-6-(6-isopropoxy-3-pyridyl)pyridine-3-carboxamide], the EC30 result was “+++ (“+++” means <3 uM)”.

`CC(C)c1ccc(-c2ccc(C(=O)NS(=O)(=O)c3ccn[nH]3)c(N3[C@H](C)CC[C@@H]3C)n2)cc1` [Compound 414, 2-[(2S,5R)-2,5-dimethylpyrrolidin-1-yl]-6-(4-isopropylphenyl)-N-(1H-pyrazol-5-ylsulfonyl)pyridine-3-carboxamide]: the EC30 result is reported as “+++ (“+++” means <3 uM)”.

`Cc1cc(C)c(CN2Cc3ccccc3C2C(=O)NS(=O)(=O)c2cc(N)ccn2)c(C)c1` (centres unmarked) [Compound 32, N-[(4-amino-2-pyridyl)sulfonyl]-2-[(2,4,6-trimethylphenyl)methyl]isoindoline-1-carboxamide]: the EC30 entry is “++ (“++” means between 3 uM and 10 uM)”. Turning to `Cc1cc(C)c(Oc2nc(-c3ccccc3)ccc2C(=O)NS(=O)(=O)c2ccn[nH]2)c(C)c1` [Compound 784, 6-phenyl-N-(1H-pyrazol-5-ylsulfonyl)-2-(2,4,6-trimethylphenoxy)pyridine-3-carboxamide], the EC30 result is reported as “+++ (“+++” means <3 uM)”. Turning to `Cc1cc(C)c(Oc2nc(-c3cnn(CC(C)C)c3)ccc2C(=O)NS(=O)(=O)c2cc[nH]n2)c(C)c1` [Compound 577, 6-(1-isobutylpyrazol-4-yl)-N-(1H-pyrazol-3-ylsulfonyl)-2-(2,4,6-trimethylphenoxy)pyridine-3-carboxamide], the 30% effect concentration (EC30) entry was “++ (“++” means between 3 uM and 10 uM)”.

As to `Cc1cc(C)c(Oc2nc3c(cc2C(=O)NS(=O)(=O)c2cccc(N)n2)CCC(C)(C)C3)c(C)c1` [Compound 665, N-[(6-amino-2-pyridyl)sulfonyl]-7,7-dimethyl-2-(2,4,6-trimethylphenoxy)-6,8-dihydro-5H-quinoline-3-carboxamide], the EC30 result is on record as “+++ (“+++” means <3 uM)”.

For the compound `CCCOc1ccc(F)c(-c2ccc(C(=O)NS(=O)(=O)c3ccc[nH]c3=O)c(Oc3c(C)cc(C)cc3C)n2)c1` [Compound 552, 6-(2-fluoro-5-propoxy-phenyl)-N-[(2-oxo-1H-pyridin-3-yl)sulfonyl]-2-(2,4,6-trimethylphenoxy)pyridine-3-carboxamide], the 30% effect concentration (EC30) result was “++ (“++” means between 3 uM and 10 uM)”. Still for that read-out and setting: as for `Cc1cc(C)c(Cn2c(C(=O)NS(=O)(=O)c3ccccn3)cc3ccccc32)c(C)c1` [Compound 247, N-(2-pyridylsulfonyl)-1-[(2,4,6-trimethylphenyl)methyl]indole-2-carboxamide], the entry is “+++ (“+++” means <3 uM)”; as for `CC(C)COc1cc(F)cc(-c2ccc(C(=O)NS(=O)(=O)c3cccc(N)n3)c(N3[C@H](C)CC[C@@H]3C)n2)c1` [Compound 171, N-[(6-amino-2-pyridyl)sulfonyl]-2-[(2S,5R)-2,5-dimethylpyrrolidin-1-yl]-6-(3-fluoro-5-isobutoxy-phenyl)pyridine-3-carboxamide], “+++ (“+++” means <3 uM)”; as for `CC(C)Oc1ccc(-c2ccc(C(=O)NS(=O)(=O)c3cccc(N)n3)c(N3C(C)CC(c4ccccc4)C3C)n2)cn1` (centres unmarked) [Compound 601, N-[(6-amino-2-pyridyl)sulfonyl]-2-(2,5-dimethyl-3-phenyl-pyrrolidin-1-yl)-6-(6-isopropoxy-3-pyridyl)pyridine-3-carboxamide], “+++ (“+++” means <3 uM)”. For the compound `Cc1cc(C)c(Oc2nc(N3CCCC3)ccc2C(=O)NS(=O)(=O)c2cccc(N)n2)c(C)c1` [Compound 746, N-[(6-amino-2-pyridyl)sulfonyl]-6-pyrrolidin-1-yl-2-(2,4,6-trimethylphenoxy)pyridine-3-carboxamide], the EC30 entry was “+++ (“+++” means <3 uM)”.
